Data from publication PMC6812009, “Covalent Aurora A regulation by the metabolic integrator coenzyme A” (Redox Biology, 2019).

Tests used:
Assay in all cases: Kinase profiling screen (radioactive filter-binding assay)
Type in all cases: biochemical
MSK1 = MSK1 (Homo sapiens, UniProt O75582); conditions: 100 μM compound, 20 μM ATP; read-out: Kinase activity, % of activity in the absence of inhibitor
How it was run: (§1)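 Single-point in vitro screen: 100 μM final of CoA, dpCoA and ADP, run in duplicate against recombinant kinase with a model substrate and optimal ATP.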

MARK4 = target: T1, MARK4 (Homo sapiens, UniProt Q96L34); conditions: 100 μM compound, 50 μM ATP; read-out: Kinase activity, % of activity in the absence of inhibitor
T1 sequence (Q96L34 1-752): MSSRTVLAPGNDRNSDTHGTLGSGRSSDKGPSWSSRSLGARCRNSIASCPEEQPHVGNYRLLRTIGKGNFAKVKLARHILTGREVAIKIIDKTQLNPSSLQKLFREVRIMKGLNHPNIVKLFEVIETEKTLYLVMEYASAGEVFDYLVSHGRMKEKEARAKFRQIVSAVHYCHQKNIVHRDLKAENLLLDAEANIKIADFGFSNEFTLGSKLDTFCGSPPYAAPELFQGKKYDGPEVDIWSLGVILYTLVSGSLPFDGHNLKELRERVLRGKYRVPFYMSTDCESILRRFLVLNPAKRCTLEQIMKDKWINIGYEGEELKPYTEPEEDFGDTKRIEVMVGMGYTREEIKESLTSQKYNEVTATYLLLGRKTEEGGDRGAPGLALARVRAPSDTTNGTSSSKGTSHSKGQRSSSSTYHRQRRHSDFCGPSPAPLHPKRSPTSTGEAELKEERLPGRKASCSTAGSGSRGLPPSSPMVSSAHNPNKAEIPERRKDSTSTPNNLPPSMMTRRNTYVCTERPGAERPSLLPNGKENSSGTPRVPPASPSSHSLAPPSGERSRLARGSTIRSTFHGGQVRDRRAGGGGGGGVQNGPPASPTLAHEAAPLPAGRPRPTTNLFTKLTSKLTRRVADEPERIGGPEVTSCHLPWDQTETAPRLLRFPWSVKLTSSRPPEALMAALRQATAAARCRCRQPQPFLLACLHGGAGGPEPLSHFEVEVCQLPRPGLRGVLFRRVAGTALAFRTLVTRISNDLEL
How it was run: as §1

MST2 = target: T2, MST2 (Homo sapiens, UniProt Q13188); conditions: 100 μM compound, 20 μM ATP; read-out: Kinase activity, % of activity in the absence of inhibitor
T2 sequence (Q13188 1-491): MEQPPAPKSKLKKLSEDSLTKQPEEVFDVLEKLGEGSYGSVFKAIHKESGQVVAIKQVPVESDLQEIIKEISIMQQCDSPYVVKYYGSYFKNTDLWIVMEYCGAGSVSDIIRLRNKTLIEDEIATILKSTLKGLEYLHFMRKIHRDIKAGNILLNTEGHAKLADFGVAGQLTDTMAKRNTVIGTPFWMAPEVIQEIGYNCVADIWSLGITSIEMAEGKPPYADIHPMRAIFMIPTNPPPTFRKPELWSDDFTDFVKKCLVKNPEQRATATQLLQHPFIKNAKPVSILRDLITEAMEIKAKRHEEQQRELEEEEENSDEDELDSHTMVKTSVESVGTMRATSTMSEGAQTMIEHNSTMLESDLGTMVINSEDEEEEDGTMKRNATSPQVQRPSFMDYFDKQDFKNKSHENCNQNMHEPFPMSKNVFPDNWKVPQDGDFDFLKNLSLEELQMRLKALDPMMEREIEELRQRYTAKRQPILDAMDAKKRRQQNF
How it was run: as §1

EPH-A2 = EPH-A2 (Homo sapiens, UniProt P29317); conditions: 100 μM compound, 50 μM ATP; read-out: Kinase activity, % of activity in the absence of inhibitor
How it was run: as §1

Src = Src (Homo sapiens, UniProt P12931); conditions: for activity at 100 µM: 100 μM compound, 50 μM ATP, read-out: Kinase activity, % of activity in the absence of inhibitor
How it was run: as §1

CHK1 = target: T3, CHK1 (Homo sapiens, UniProt O14757); conditions: 100 μM compound, 20 μM ATP; read-out: Kinase activity, % of activity in the absence of inhibitor
T3 sequence (O14757 1-476): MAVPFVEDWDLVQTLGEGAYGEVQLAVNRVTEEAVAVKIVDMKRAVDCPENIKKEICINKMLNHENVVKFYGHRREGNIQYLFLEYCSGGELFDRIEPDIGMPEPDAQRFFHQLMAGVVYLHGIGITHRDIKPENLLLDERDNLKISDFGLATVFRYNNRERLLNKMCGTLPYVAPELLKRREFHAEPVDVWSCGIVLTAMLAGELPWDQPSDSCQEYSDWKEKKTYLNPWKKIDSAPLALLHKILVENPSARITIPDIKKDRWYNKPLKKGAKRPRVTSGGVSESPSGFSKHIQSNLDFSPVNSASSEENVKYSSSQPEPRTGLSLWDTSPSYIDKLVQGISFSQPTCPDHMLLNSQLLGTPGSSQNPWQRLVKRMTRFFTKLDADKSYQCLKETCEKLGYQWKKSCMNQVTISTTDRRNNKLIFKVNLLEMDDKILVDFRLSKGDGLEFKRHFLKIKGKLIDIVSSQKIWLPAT
How it was run: as §1

Chain of Src (P12931 whole entry): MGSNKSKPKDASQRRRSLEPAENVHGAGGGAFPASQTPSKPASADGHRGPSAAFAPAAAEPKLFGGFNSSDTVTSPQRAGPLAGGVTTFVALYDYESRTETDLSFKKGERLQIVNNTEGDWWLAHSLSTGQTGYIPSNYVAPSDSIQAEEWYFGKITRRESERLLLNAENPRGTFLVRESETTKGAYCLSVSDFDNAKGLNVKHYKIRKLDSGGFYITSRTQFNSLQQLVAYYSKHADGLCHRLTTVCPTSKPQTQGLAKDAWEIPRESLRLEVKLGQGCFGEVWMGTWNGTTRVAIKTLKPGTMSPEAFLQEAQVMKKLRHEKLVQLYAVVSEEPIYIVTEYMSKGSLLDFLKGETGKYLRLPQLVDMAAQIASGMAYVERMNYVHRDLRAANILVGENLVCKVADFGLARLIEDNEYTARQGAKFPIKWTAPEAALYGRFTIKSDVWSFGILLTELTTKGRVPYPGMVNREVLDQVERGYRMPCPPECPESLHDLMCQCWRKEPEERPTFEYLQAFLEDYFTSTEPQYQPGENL
Chain of MSK1 (O75582 whole entry): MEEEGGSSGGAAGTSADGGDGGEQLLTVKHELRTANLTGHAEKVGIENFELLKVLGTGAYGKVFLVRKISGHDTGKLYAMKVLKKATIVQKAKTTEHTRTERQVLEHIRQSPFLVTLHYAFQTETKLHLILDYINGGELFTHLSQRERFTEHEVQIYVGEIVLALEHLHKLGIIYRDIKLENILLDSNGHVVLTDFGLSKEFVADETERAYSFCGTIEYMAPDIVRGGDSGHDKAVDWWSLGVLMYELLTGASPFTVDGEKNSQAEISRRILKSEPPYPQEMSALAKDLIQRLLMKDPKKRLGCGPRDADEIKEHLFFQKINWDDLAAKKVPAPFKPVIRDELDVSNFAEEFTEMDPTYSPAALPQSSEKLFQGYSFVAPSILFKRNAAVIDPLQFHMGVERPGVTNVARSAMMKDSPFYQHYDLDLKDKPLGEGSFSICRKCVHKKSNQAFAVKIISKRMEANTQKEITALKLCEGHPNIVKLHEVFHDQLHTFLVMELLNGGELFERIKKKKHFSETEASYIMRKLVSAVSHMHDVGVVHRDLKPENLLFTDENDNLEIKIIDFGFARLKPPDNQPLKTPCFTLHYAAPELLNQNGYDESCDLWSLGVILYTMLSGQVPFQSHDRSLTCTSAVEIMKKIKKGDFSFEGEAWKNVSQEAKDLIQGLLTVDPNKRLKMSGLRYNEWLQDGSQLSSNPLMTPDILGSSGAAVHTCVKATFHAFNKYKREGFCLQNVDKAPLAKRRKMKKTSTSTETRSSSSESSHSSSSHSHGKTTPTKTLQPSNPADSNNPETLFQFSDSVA
Chain of EPH-A2 (P29317 24-976): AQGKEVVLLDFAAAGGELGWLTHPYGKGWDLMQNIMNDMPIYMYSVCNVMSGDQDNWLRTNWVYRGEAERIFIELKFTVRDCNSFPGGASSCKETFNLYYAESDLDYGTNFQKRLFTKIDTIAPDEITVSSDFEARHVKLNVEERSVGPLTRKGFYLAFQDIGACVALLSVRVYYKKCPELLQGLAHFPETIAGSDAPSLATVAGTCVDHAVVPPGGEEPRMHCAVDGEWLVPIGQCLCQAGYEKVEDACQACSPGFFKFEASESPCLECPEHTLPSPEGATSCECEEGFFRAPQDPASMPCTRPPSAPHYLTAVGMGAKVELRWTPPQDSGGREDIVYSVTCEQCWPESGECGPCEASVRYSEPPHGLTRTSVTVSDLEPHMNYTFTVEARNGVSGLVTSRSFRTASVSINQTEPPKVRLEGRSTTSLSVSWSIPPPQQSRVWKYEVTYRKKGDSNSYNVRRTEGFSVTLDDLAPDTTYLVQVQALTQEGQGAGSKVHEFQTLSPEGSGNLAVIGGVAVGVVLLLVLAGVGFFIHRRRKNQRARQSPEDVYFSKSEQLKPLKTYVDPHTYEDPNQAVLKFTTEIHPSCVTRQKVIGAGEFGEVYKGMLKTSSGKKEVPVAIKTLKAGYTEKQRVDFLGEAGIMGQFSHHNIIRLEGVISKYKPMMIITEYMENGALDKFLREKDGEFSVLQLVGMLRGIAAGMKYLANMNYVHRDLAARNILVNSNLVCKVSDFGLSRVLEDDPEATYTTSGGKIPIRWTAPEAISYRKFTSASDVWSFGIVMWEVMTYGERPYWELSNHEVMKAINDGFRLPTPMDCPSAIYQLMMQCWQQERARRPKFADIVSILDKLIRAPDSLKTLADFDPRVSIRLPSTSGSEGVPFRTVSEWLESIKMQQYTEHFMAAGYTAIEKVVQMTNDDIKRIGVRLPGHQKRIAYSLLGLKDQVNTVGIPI

| Structure (SMILES) | activity at 100 µM (MSK1) [%] | activity at 100 µM (MARK4) [%] | activity at 100 µM (MST2) [%] | activity at 100 µM (EPH-A2) [%] | activity at 100 µM (Src) [%] | activity at 100 µM (CHK1) [%] | inhibition at 100 µM (Src; 100 μM CoA, kinase profiling screen) [%] | SRC inhibition (in words) (Src; kinase profiling, 100 μM) |
| --- | --- | --- | --- | --- | --- | --- | --- | --- |
| Nc1ncnc2c1ncn2C1OC(COP(=O)(O)OP(=O)(O)O)C(O)C1O (centres unmarked) [ADP] | 53.3 | 49.1 | 40.5 | 45 | 31.8 | 47.6 |  |  |
| CC(C)(COP(=O)(O)OP(=O)(O)OC[C@H]1O[C@@H](n2cnc3c(N)ncnc32)[C@H](O)[C@@H]1OP(=O)(O)O)[C@@H](O)C(=O)NCCC(=O)NCCS [CoA, Coenzyme A] | 106 | 87.7 | 119 | 102 | 43.8 | 123 | ≤ 50 | modestly inhibited |
| CC(C)(COP(=O)(O)OP(=O)(O)OCC1OC(n2cnc3c(N)ncnc32)C(O)C1O)C(O)C(=O)NCCC(=O)NCCS (centres unmarked) [dpCoA, dephospho-CoA] | 70.5 | 86.6 | 72.5 | 99.2 | 8.9 | 78.8 |  |  |
